Data reported in ChEMBL document CHEMBL4334493, “14- and 15-membered lactone macrolides and their analogues and hybrids: structure, molecular mechanism of action and biological activity” (Eur J Med Chem, 2019).
Values after ≈ are worked out from the molar mass of the structure shown.

Key:
Haemophilus influenzae [1] = assay: Antibacterial activity against Haemophilus influenzae 49247; assay type: functional
Haemophilus influenzae [2] = assay: Antibacterial activity against Haemophilus influenzae 33929; assay type: functional
Staphylococcus aureus [3] = assay: Antibacterial activity against Staphylococcus aureus ATCC 25923 by NCCLS protocol based broth microdilution method; assay type: functional
[4] = tested on: Staphylococcus epidermidis; assay: Antibacterial activity against Staphylococcus epidermidis ATCC 12228 by NCCLS protocol based broth microdilution method; assay type: functional
Enterococcus faecalis [5] = assay: Antibacterial activity against Enterococcus faecalis ATCC 29212 by NCCLS protocol based broth microdilution method; assay type: functional
Pseudomonas aeruginosa [6] = assay: Antibacterial activity against Pseudomonas aeruginosa 27853 by NCCLS protocol based broth microdilution method; assay type: functional
Klebsiella pneumoniae [7] = assay: Antibacterial activity against Klebsiella pneumoniae 13883 by NCCLS protocol based broth microdilution method; assay type: functional
[8] = Antibacterial activity against Salmonella choleraesuis 14028 by NCCLS protocol based broth microdilution method; assay type: functional, Salmonella enterica subsp. enterica serovar Choleraesuis; settings: Salmonella enterica
Escherichia coli [9] = assay: Antibacterial activity against Escherichia coli ATCC 25922 by NCCLS protocol based broth microdilution method; assay type: functional
Streptococcus pneumoniae [10] = assay: Antibacterial activity against Streptococcus pneumoniae 49619 by NCCLS protocol based broth microdilution method; assay type: functional
Staphylococcus aureus [11] = assay: Antibacterial activity against methicillin resistant Staphylococcus aureus MP513 expressing cErmA; assay type: functional
Enterococcus faecalis [12] = assay: Antibacterial activity against Enterococcus faecalis ATCC 29212; assay type: functional
Enterococcus faecalis [13] = assay: Antibacterial activity against Enterococcus faecalis UN-047 VRE expressing ErmS; assay type: functional
Staphylococcus aureus [14] = assay: Antibacterial activity against methicillin resistant Staphylococcus aureus NRS384 expressing MsrA; assay type: functional
Staphylococcus aureus [15] = assay: Antibacterial activity against Staphylococcus aureus BAA-977 expressing iermA; assay type: functional
Escherichia coli [16] = assay: Antibacterial activity against Escherichia coli ATCC 25922; assay type: functional
Streptococcus pyogenes [17] = assay: Antibacterial activity against Streptococcus pyogenes ATCC 19615; assay type: functional
Acinetobacter baumannii = assay: Antibacterial activity against Acinetobacter baumannii ATCC 19606; assay type: functional; settings: ATCC 19606 = CIP 70.34 = JCM 6841
Staphylococcus aureus [18] = assay: Antibacterial activity against Staphylococcus aureus ATCC 29213; assay type: functional
Haemophilus influenzae [19] = assay: Antibacterial activity against Haemophilus influenzae ATCC 49247; assay type: functional
Streptococcus pneumoniae [20] = assay: Antibacterial activity against Streptococcus pneumoniae UNT-042 expressing ErmB/MefA; assay type: functional
Klebsiella pneumoniae [21] = assay: Antibacterial activity against Klebsiella pneumoniae ATCC 10031; assay type: functional
Streptococcus pneumoniae [22] = assay: Antibacterial activity against Streptococcus pneumoniae ATCC 49619; assay type: functional
Pseudomonas aeruginosa [23] = assay: Antibacterial activity against Pseudomonas aeruginosa ATCC 27853; assay type: functional
Histophilus somni = assay: Antibacterial activity against Histophilus somni ATCC 700025 after 24 hrs by broth microdilution method; assay type: functional; settings: ATCC 700025, 24 h
Streptococcus pneumoniae [24] = assay: Antibacterial activity against Streptococcus pneumoniae ATCC 49619 after 24 hrs by broth microdilution method; assay type: functional; settings: ATCC 49619, 24 h
Escherichia coli [25] = assay: Antibacterial activity against Escherichia coli leuS ANA395 after 24 hrs by broth microdilution method; assay type: functional; settings: leuS ANA395, 24 h
Cutibacterium acnes = assay: Antibacterial activity against Propionibacterium acnes ATCC 6919 after 24 hrs by broth microdilution method; assay type: functional; settings: ATCC 6919, 24 h
Enterococcus faecium [26] = assay: Antibacterial activity against Enterococcus faecium 569 after 24 hrs by broth microdilution method; assay type: functional; settings: Enterococcus faecium, 569, 24 h
Staphylococcus aureus [27] = assay: Antibacterial activity against Staphylococcus aureus ATCC 25923 after 24 hrs by broth microdilution method; assay type: functional; settings: ATCC 25923, 24 h
Staphylococcus aureus [28] = assay: Antibacterial activity against Staphylococcus aureus 10 after 24 hrs by broth microdilution method; assay type: functional; settings: Staphylococcus aureus, 10, 24 h
Enterococcus faecium [29] = assay: Antibacterial activity against Enterococcus faecium 568 after 24 hrs by broth microdilution method; assay type: functional; settings: Enterococcus faecium, 568, 24 h
Pasteurella multocida = assay: Antibacterial activity against Pasteurella multocida IATCC 11039 after 24 hrs by broth microdilution method; assay type: functional; settings: IATCC 11039, 24 h
Mannheimia haemolytica = assay: Antibacterial activity against Mannheimia haemolytica IATCC 33396 after 24 hrs by broth microdilution method; assay type: functional; settings: IATCC 33396, 24 h
Escherichia coli [30] = assay: Antibacterial activity against Escherichia coli ECM1888 after 24 hrs by broth microdilution method; assay type: functional; settings: ECM1888, 24 h
Streptococcus pyogenes [31] = assay: Antibacterial activity against Streptococcus pyogenes ATCC 19615 after 24 hrs by broth microdilution method; assay type: functional; settings: ATCC 19615, 24 h
[32] = tested on: Staphylococcus epidermidis; assay: Antibacterial activity against Staphylococcus epidermidis ATCC 12228 after 24 hrs by broth microdilution method; assay type: functional; settings: ATCC 12228, 24 h
Escherichia coli [33] = assay: Antibacterial activity against Escherichia coli DK pKK 3535; assay type: functional
Escherichia coli [34] = assay: Antibacterial activity against Escherichia coli DK A2058G; assay type: functional
Streptococcus pneumoniae [35] = assay: Antibacterial activity against Streptococcus pneumoniae 655 mefA; assay type: functional

**Q.** Which results are given for `CC[C@H]1OC(=O)[C@H](C)C(=O)[C@H](C)[C@@H](O[C@@H]2O[C@H](C)C[C@H](N(C)C)[C@H]2O)[C@@]2(C)C[C@@H](C)/C(=N\C(C)=O)[C@H](C)[C@@H](OC/C(=N\OCc3ccc(-c4ccno4)cn3)CO2)[C@]1(C)O`?
**A.** MIC (Haemophilus influenzae [1]): 4 µg/mL (≈ 4.75 µM); MIC (Haemophilus influenzae [2]): 4 µg/mL (≈ 4.75 µM)

**Q.** For `CC[C@H]1OC(=O)[C@H](C)[C@@H](O[C@H]2C[C@@](C)(OC)[C@@H](OC(=O)NC[C@H]3OB(O)c4ccccc43)[C@H](C)O2)[C@H](C)[C@@H](O[C@@H]2O[C@H](C)C[C@H](N(C)C)[C@H]2O)[C@](C)(OC)C[C@@H](C)C(=O)[C@H](C)[C@@H](O)[C@]1(C)O`, which MIC (Staphylococcus aureus [3]) is on record?
**A.** 2 µg/mL (≈ 2.13 µM)

**Q.** And the MIC [4]?
**A.** 0.5 µg/mL (≈ 0.534 µM)

**Q.** And the MIC (Enterococcus faecalis [5])?
**A.** 4 µg/mL (≈ 4.27 µM)

**Q.** What about the MIC (Pseudomonas aeruginosa [6]) of the same compound?
**A.** > 64 µg/mL

**Q.** And the MIC (Klebsiella pneumoniae [7])?
**A.** > 64 µg/mL

**Q.** What about the MIC [8] of the same compound?
**A.** > 64 µg/mL

**Q.** And the MIC (Escherichia coli [9])?
**A.** > 64 µg/mL

**Q.** And the MIC (Streptococcus pneumoniae [10])?
**A.** 0.5 µg/mL (≈ 0.534 µM)

**Q.** Which MIC (Staphylococcus aureus [11]) does the source give for `CC[C@H]1OC(=O)[C@H](C)C(=O)[C@H](C)[C@@H](O[C@@H]2O[C@H](C)C[C@H](N(C)C)[C@H]2O)[C@](C)(OC)C[C@@H](C)CN[C@H](C)[C@H]2N(CCCCn3cc(-c4cccc(N)c4)nn3)C(=O)O[C@]12C` here?
**A.** > 64 µg/mL

**Q.** What about the MIC (Enterococcus faecalis [12]) of the same compound?
**A.** 0.125 µg/mL (≈ 0.151 µM)

**Q.** What about the MIC (Enterococcus faecalis [13]) of the same compound?
**A.** > 64 µg/mL

**Q.** What about the MIC (Staphylococcus aureus [14]) of the same compound?
**A.** 1 µg/mL (≈ 1.21 µM)

**Q.** What about the MIC (Staphylococcus aureus [15]) of the same compound?
**A.** 0.5 µg/mL (≈ 0.604 µM)

**Q.** What about the MIC (Escherichia coli [16]) of the same compound?
**A.** 4 µg/mL (≈ 4.83 µM)

**Q.** And the MIC (Streptococcus pyogenes [17])?
**A.** ≤ 0.03 µg/mL

**Q.** And the MIC (Acinetobacter baumannii)?
**A.** 4 µg/mL (≈ 4.83 µM)

**Q.** And the MIC (Staphylococcus aureus [18])?
**A.** 0.5 µg/mL (≈ 0.604 µM)

**Q.** And the MIC (Haemophilus influenzae [19])?
**A.** 2 µg/mL (≈ 2.42 µM)

**Q.** What about the MIC (Streptococcus pneumoniae [20]) of the same compound?
**A.** 2 µg/mL (≈ 2.42 µM)

**Q.** And the MIC (Klebsiella pneumoniae [21])?
**A.** 2 µg/mL (≈ 2.42 µM)

**Q.** And the MIC (Streptococcus pneumoniae [22])?
**A.** ≤ 0.03 µg/mL

**Q.** And the MIC (Pseudomonas aeruginosa [23])?
**A.** 64 µg/mL (≈ 77.3 µM)

**Q.** What does the source list for `CC[C@H]1OC(=O)[C@H](C)[C@@H](O[C@H]2C[C@@](C)(OC)[C@@H](OC(=O)NCCCNC(=O)CCc3cccc4c3B(O)OC4)[C@H](C)O2)[C@H](C)[C@@H](O[C@@H]2O[C@H](C)C[C@H](N(C)C)[C@H]2O)[C@](C)(O)C[C@@H](C)CN(C)[C@H](C)[C@H]2OC(=O)O[C@@]21C`?
**A.** MIC (Histophilus somni): 4 µg/mL (≈ 3.76 µM); MIC (Streptococcus pneumoniae [24]): 0.13 µg/mL (≈ 0.122 µM); MIC (Escherichia coli [25]): 8 µg/mL (≈ 7.53 µM); MIC (Cutibacterium acnes): ≤ 0.12 µg/mL; MIC (Enterococcus faecium [26]): 2 µg/mL (≈ 1.88 µM); MIC (Staphylococcus aureus [27]): 4 µg/mL (≈ 3.76 µM); MIC (Staphylococcus aureus [28]): 0.5 µg/mL (≈ 0.47 µM); MIC (Enterococcus faecium [29]): 0.13 µg/mL (≈ 0.122 µM); MIC (Pasteurella multocida): 4 µg/mL (≈ 3.76 µM); MIC (Mannheimia haemolytica): 8 µg/mL (≈ 7.53 µM); MIC (Escherichia coli [30]): 8 µg/mL (≈ 7.53 µM); MIC (Streptococcus pyogenes [31]): 0.25 µg/mL (≈ 0.235 µM); MIC [32]: 8 µg/mL (≈ 7.53 µM)

**Q.** For `CC[C@H]1OC(=O)[C@@](C)(F)C(=O)[C@H](C)[C@@H](O[C@@H]2O[C@H](C)C[C@H](N(C)C)[C@H]2O)[C@](C)(OC)C[C@@H](C)C(=O)[C@H](C)[C@H]2N(CCCCn3nncc3-c3cccs3)C(=O)O[C@]12C`, which MIC (Escherichia coli [33]) is on record?
**A.** 1 µg/mL (≈ 1.2 µM)

**Q.** And the MIC (Escherichia coli [34])?
**A.** 0.004 µg/mL (≈ 0.00478 µM)

**Q.** And the MIC (Streptococcus pneumoniae [35])?
**A.** 0.5 µg/mL (≈ 0.598 µM)

**Q.** What about the MIC (Streptococcus pneumoniae [22]) of the same compound?
**A.** 1 µg/mL (≈ 1.2 µM)

**Q.** For `CC[C@H]1OC(=O)[C@H](C)C(=O)[C@H](C)[C@@H](O[C@@H]2O[C@H](C)C[C@H](N(C)C)[C@H]2O)[C@@]2(C)C[C@@H](C)C(=O)[C@H](C)[C@@H](OC/C(=N\OCc3ccc(-c4nc(N)cs4)cn3)CO2)[C@]1(C)O`, which MIC (Haemophilus influenzae [1]) is on record?
**A.** 1 µg/mL (≈ 1.2 µM)

**Q.** What about the MIC (Haemophilus influenzae [2]) of the same compound?
**A.** 2 µg/mL (≈ 2.4 µM)
